Results on one compound are retold here after PMC5218480 (PLoS ONE, 2017).

For the assay, the system named is MV-4-11 cells. Description: Gene expression microarray analysis (Affymetrix PrimeView) and GSEA. The assay is classed as cell-based, human. More on the design: RFU PODN (11730768_x_at) / Fold change /veh PODN (11730768_x_at) / RFU LINC00158 (11744669_a_at) / Fold change /veh LINC00158 (11744669_a_at) / RFU DUSP10 (11751237_a_at) / Fold change /veh DUSP10 (11751237_a_at) / RFU ID3 (11757404_x_at) / Fold change /veh ID3 (11757404_x_at) / RFU PLEKHG5 (11737974_s_at) / Fold change /veh PLEKHG5 (11737974_s_at) / RFU LRRC4B (11730491_at) / Fold change /veh LRRC4B (11730491_at) / RFU GIMAP4 (11747438_a_at) / Fold change /veh GIMAP4 (11747438_a_at) / RFU KRT8 (11758183_x_at) / Fold change /veh KRT8 (11758183_x_at) / RFU CNN1 (11734310_a_at) / Fold change /veh CNN1 (11734310_a_at) / RFU VPS37D (11726825_at) / Fold change /veh VPS37D (11726825_at) / RFU C10orf10 (11716522_x_at) / Fold change /veh C10orf10 (11716522_x_at) / RFU KIR2DL2 /// KIR2DL4 /// KIR2DL5A /// KIR2DL5B /// KIR2DS1 /// KIR2DS2 /// KIR2DS3 /// KIR2DS4 /// KIR3DL3 /// KIR3DL3 /// KIR3DS1 (11738374_at) / Fold change /veh KIR2DL2 /// KIR2DL4 /// KIR2DL5A /// KIR2DL5B /// KIR2DS1 /// KIR2DS2 /// KIR2DS3 /// KIR2DS4 /// KIR3DL3 /// KIR3DL3 /// KIR3DS1 (11738374_at) / RFU C1QL1 (11718748_at) / Fold change /veh C1QL1 (11718748_at) / RFU TMPRSS4 (11747572_a_at) / Fold change /veh TMPRSS4 (11747572_a_at) / RFU HAMP (11756126_x_at) / Fold change /veh HAMP (11756126_x_at) / RFU RNFT2 (11725882_a_at) / Fold change /veh RNFT2 (11725882_a_at) / RFU NR4A2 (11747474_a_at) / Fold change /veh NR4A2 (11747474_a_at) / RFU ABCC12 (11746883_a_at) / Fold change /veh ABCC12 (11746883_a_at) / RFU TMEM136 (11760407_x_at) / Fold change /veh TMEM136 (11760407_x_at) / RFU CLDN22 /// WWC2 (11732394_at) / Fold change /veh CLDN22 /// WWC2 (11732394_at) / RFU HLA-DPB1 (11760878_x_at) / Fold change /veh HLA-DPB1 (11760878_x_at) / RFU SPINT1 (11716480_a_at) / Fold change /veh SPINT1 (11716480_a_at) / RFU GAP43 (11754022_s_at) / Fold change /veh GAP43 (11754022_s_at) / RFU A4GNT (11735810_at) / Fold change /veh A4GNT (11735810_at) / RFU PRB3 (11715151_x_at) / Fold change /veh PRB3 (11715151_x_at) / RFU TUBB4B (11761932_at) / Fold change /veh TUBB4B (11761932_at) / RFU CAPN14 (11732068_a_at) / Fold change /veh CAPN14 (11732068_a_at) / RFU TMCC2 (11721928_a_at) / Fold change /veh TMCC2 (11721928_a_at) / RFU IRGQ (11745062_a_at) / Fold change /veh IRGQ (11745062_a_at) / RFU FAM174B (11720279_a_at) / Fold change /veh FAM174B (11720279_a_at) / RFU TMPRSS4 (11748680_a_at) / Fold change /veh TMPRSS4 (11748680_a_at) / RFU FAM212B (11763350_a_at) / Fold change /veh FAM212B (11763350_a_at) / RFU PLEKHG5 (11743358_a_at) / Fold change /veh PLEKHG5 (11743358_a_at) / RFU ZSCAN30 (11745921_a_at) / Fold change /veh ZSCAN30 (11745921_a_at) / RFU CMKLR1 (11741424_a_at) / Fold change /veh CMKLR1 (11741424_a_at) / RFU LOC101060620 /// MAPK8IP1 (11723275_at) / Fold change /veh LOC101060620 /// MAPK8IP1 (11723275_at) / RFU SPTSSB (11747773_x_at) / Fold change /veh SPTSSB (11747773_x_at) / RFU PRSS12 (11739890_at) / Fold change /veh PRSS12 (11739890_at) / RFU BIN1 (11741810_x_at) / Fold change /veh BIN1 (11741810_x_at) / RFU WNT11 (11732464_a_at) / Fold change /veh WNT11 (11732464_a_at) / RFU C10orf10 (11716521_a_at) / Fold change /veh C10orf10 (11716521_a_at) / RFU C5orf56 (11738089_at) / Fold change /veh C5orf56 (11738089_at) / RFU CYB561 (11721691_x_at) / Fold change /veh CYB561 (11721691_x_at) / RFU ANKRD19P (11752326_a_at) / Fold change /veh ANKRD19P (11752326_a_at) / RFU OR2T12 /// OR2T33 /// OR2T8 (11738714_s_at) / Fold change /veh OR2T12 /// OR2T33 /// OR2T8 (11738714_s_at) / RFU VCAN (11748164_a_at) / Fold change /veh VCAN (11748164_a_at) / RFU JSRP1 (11732532_at) / Fold change /veh JSRP1 (11732532_at) / RFU KRTAP10-11 (11738290_x_at) / Fold change /veh KRTAP10-11 (11738290_x_at) / RFU MYO3A (11730013_a_at) / Fold change /veh MYO3A (11730013_a_at) / RFU EBF3 (11725865_a_at) / Fold change /veh EBF3 (11725865_a_at) / RFU CAMK2N1 (11719241_x_at) / Fold change /veh CAMK2N1 (11719241_x_at) / RFU C5orf56 (11738088_a_at) / Fold change /veh C5orf56 (11738088_a_at) / RFU OLFML3 (11715873_a_at) / Fold change /veh OLFML3 (11715873_a_at) / RFU LOC100653217 /// NTM (11731650_a_at) / Fold change /veh LOC100653217 /// NTM (11731650_a_at) / RFU MAPK11 (11762145_a_at) / Fold change /veh MAPK11 (11762145_a_at) / RFU FIZ1 (11724087_x_at) / Fold change /veh FIZ1 (11724087_x_at) / RFU OASL (11726364_x_at) / Fold change /veh OASL (11726364_x_at) / RFU SOX15 (11748057_x_at) / Fold change /veh SOX15 (11748057_x_at) / RFU CD79A (11719716_a_at) / Fold change /veh CD79A (11719716_a_at) / RFU HIST1H1D (11736915_at) / Fold change /veh HIST1H1D (11736915_at) / RFU CASKIN2 (11723855_a_at) / Fold change /veh CASKIN2 (11723855_a_at) / RFU LOC730098 (11760151_x_at) / Fold change /veh LOC730098 (11760151_x_at) / RFU OR4N2 (11742367_at) / Fold change /veh OR4N2 (11742367_at) / RFU PRRT2 (11749266_a_at) / Fold change /veh PRRT2 (11749266_a_at) / RFU SNX32 (11753110_a_at) / Fold change /veh SNX32 (11753110_a_at) / RFU CDHR5 (11726645_a_at) / Fold change /veh CDHR5 (11726645_a_at) / RFU RCAN1 (11760418_a_at) / Fold change /veh RCAN1 (11760418_a_at) / RFU FAM167A (11723789_a_at) / Fold change /veh FAM167A (11723789_a_at) / RFU FAM26E (11764081_at) / Fold change /veh FAM26E (11764081_at) / RFU ISYNA1 (11749810_s_at) / Fold change /veh ISYNA1 (11749810_s_at) / RFU ACY1 (11761880_at) / Fold change /veh ACY1 (11761880_at) / RFU 11764098_at / Fold change /veh 11764098_at / RFU SAMD14 (11745864_x_at) / Fold change /veh SAMD14 (11745864_x_at) / RFU NPB (11741838_a_at) / Fold change /veh NPB (11741838_a_at) / RFU TMPRSS6 (11731388_a_at) / Fold change /veh TMPRSS6 (11731388_a_at) / RFU KRTAP10-2 (11738614_at) / Fold change /veh KRTAP10-2 (11738614_at) / RFU ARHGAP8 /// PRR5-ARHGAP8 (11727945_x_at) / Fold change /veh ARHGAP8 /// PRR5-ARHGAP8 (11727945_x_at) / RFU KRTAP5-7 /// NADSYN1 (11734609_at) / Fold change /veh KRTAP5-7 /// NADSYN1 (11734609_at) / RFU RASL12 (11751679_a_at) / Fold change /veh RASL12 (11751679_a_at) / RFU CDKN2B (11736163_a_at) / Fold change /veh CDKN2B (11736163_a_at) / RFU PRF1 (11729649_at) / Fold change /veh PRF1 (11729649_at) / RFU, ZNF638 /// ZNF638-IT1 / Fold change vs veh, ZNF638 /// ZNF638-IT1 / RFU, PANK3 / Fold change vs veh, PANK3 / RFU, SH3YL1 / Fold change vs veh, SH3YL1 / RFU, ZEB2 / Fold change vs veh, ZEB2 / RFU, NRIP1 / Fold change vs veh, NRIP1 / RFU, PTTG1IP / Fold change vs veh, PTTG1IP / RFU, CAPN2 / Fold change vs veh, CAPN2 / RFU, MED14 / Fold change vs veh, MED14 / RFU, SNORA58 / Fold change vs veh, SNORA58 / RFU, C1orf63 / Fold change vs veh, C1orf63 / RFU, LRRFIP1 / Fold change vs veh, LRRFIP1 / RFU, NDUFAF7 / Fold change vs veh, NDUFAF7 / RFU, SLC12A2 / Fold change vs veh, SLC12A2 / RFU, IBTK / Fold change vs veh, IBTK / RFU, ESF1 / Fold change vs veh, ESF1 / Fold change vs veh, TMEM50B / RFU, TAOK1 / Fold change vs veh, TAOK1 / RFU, ACBD3 / Fold change vs veh, ACBD3 / RFU, TMA16 / Fold change vs veh, TMA16 / RFU, RWDD3 / Fold change vs veh, RWDD3 / RFU, BCAT1 / Fold change vs veh, BCAT1 / RFU, EDEM3 / Fold change vs veh, EDEM3 / RFU, TMEM33 / Fold change vs veh, TMEM33 / RFU, WDR75 / Fold change vs veh, WDR75 / RFU, AHCTF1 / Fold change vs veh, AHCTF1 / RFU, TFRC / Fold change vs veh, TFRC / RFU, ZDHHC17 / Fold change vs veh, ZDHHC17 / RFU, NOM1 / Fold change vs veh, NOM1 / RFU, ARL8B / Fold change vs veh, ARL8B / RFU, ZBTB11 / Fold change vs veh, ZBTB11 / RFU, TAMM41 / Fold change vs veh, TAMM41 / RFU, KIAA1704 /// LOC100996395 / Fold change vs veh, KIAA1704 /// LOC100996395 / RFU, ING1 / Fold change vs veh, ING1 / RFU, TRMT61B / Fold change vs veh, TRMT61B / RFU, FUBP3 / Fold change vs veh, FUBP3 / RFU, TP53 / Fold change vs veh, TP53 / RFU, TNKS2 / Fold change vs veh, TNKS2 / RFU, ZFP14 / Fold change vs veh, ZFP14 / RFU, ACTR2 / Fold change vs veh, ACTR2 / RFU, PPP3R1 / Fold change vs veh, PPP3R1 / RFU, PIK3R1 / Fold change vs veh, PIK3R1 / RFU, HNRNPA1 / Fold change vs veh, HNRNPA1 / RFU, RNF170 / Fold change vs veh, RNF170 / RFU, ZNF28 / Fold change vs veh, ZNF28 / RFU, RNGTT / Fold change vs veh, RNGTT / RFU, OGT / Fold change vs veh, OGT / RFU, BRD1 / Fold change vs veh, BRD1 / RFU, MARS / Fold change vs veh, MARS / RFU, ZNF655 / Fold change vs veh, ZNF655 / RFU, FAHD1 / Fold change vs veh, FAHD1 / RFU, BDP1 / Fold change vs veh, BDP1 / RFU, LRRCC1 / Fold change vs veh, LRRCC1 / RFU, ARID1A / Fold change vs veh, ARID1A / RFU, ZNF146 / Fold change vs veh, ZNF146 / RFU, ZNF330 / Fold change vs veh, ZNF330 / RFU, GPN3 / Fold change vs veh, GPN3 / RFU, C9orf123 / Fold change vs veh, C9orf123 / RFU, N4BP2L2 / Fold change vs veh, N4BP2L2 / RFU, ARFIP1 / Fold change vs veh, ARFIP1 / RFU, FAM179B / Fold change vs veh, FAM179B / RFU, BCL10 / Fold change vs veh, BCL10 / RFU, UHRF1BP1L / Fold change vs veh, UHRF1BP1L / RFU, BET1 / Fold change vs veh, BET1 / RFU, CNOT2 / Fold change vs veh, CNOT2 / RFU, ZNF268 / Fold change vs veh, ZNF268 / Fold change vs veh, ZNF507 / RFU, DGCR2 / Fold change vs veh, DGCR2 / RFU, WDSUB1 / Fold change vs veh, WDSUB1 / Fold change vs veh, HSP90B1 /// MIR3652 / RFU, ADSS / Fold change vs veh, ADSS / RFU, GK / Fold change vs veh, GK / RFU, ZNF148 / Fold change vs veh, ZNF148 / RFU, TAF9 / Fold change vs veh, TAF9 / RFU, SLC1A5 / Fold change vs veh, SLC1A5 / RFU, SLMO2 / Fold change vs veh, SLMO2 / RFU, ABCC4 / Fold change vs veh, ABCC4 / RFU, LOC101060439 /// RAP1B / Fold change vs veh, LOC101060439 /// RAP1B / RFU, RFX7 / Fold change vs veh, RFX7 / RFU, GTPBP10 / Fold change vs veh, GTPBP10 / RFU, CNEP1R1 / Fold change vs veh, CNEP1R1 / RFU, BIVM-ERCC5 /// ERCC5 / Fold change vs veh, BIVM-ERCC5 /// ERCC5 / RFU, ILF3 / Fold change vs veh, ILF3 / RFU 11762660_at / Fold change /veh 11762660_at / RFU VCAN (11757783_s_at) / Fold change /veh VCAN (11757783_s_at) / RFU DDX43 (11728927_at) / Fold change /veh DDX43 (11728927_at) / RFU KRT8 (11758188_x_at) / Fold change /veh KRT8 (11758188_x_at) / RFU NKD1 (11759106_at) / Fold change /veh NKD1 (11759106_at) / RFU SRD5A1 (11742802_a_at) / Fold change /veh SRD5A1 (11742802_a_at) / RFU TPSAB1 /// TPSB2 (11721975_s_at) / Fold change /veh TPSAB1 /// TPSB2 (11721975_s_at) / RFU GSTM3 (11746129_a_at) / Fold change /veh GSTM3 (11746129_a_at) / RFU IL23R (11737362_x_at) / Fold change /veh IL23R (11737362_x_at) / RFU TMEM51 (11727254_a_at) / Fold change /veh TMEM51 (11727254_a_at) / RFU PIWIL2 (11732686_x_at) / Fold change /veh PIWIL2 (11732686_x_at) / RFU ORM1 (11744905_x_at) / Fold change /veh ORM1 (11744905_x_at) / RFU CCDC152 (11743942_at) / Fold change /veh CCDC152 (11743942_at) / RFU ECM1 (11717891_a_at) / Fold change /veh ECM1 (11717891_a_at) / RFU IL23R (11748794_a_at) / Fold change /veh IL23R (11748794_a_at) / RFU TNFAIP8L3 (11732012_x_at) / Fold change /veh TNFAIP8L3 (11732012_x_at) / RFU MBOAT4 (11741988_at) / Fold change /veh MBOAT4 (11741988_at) / RFU 11764193_at / Fold change /veh 11764193_at / RFU TMEM53 (11763286_at) / Fold change /veh TMEM53 (11763286_at) / RFU MAGEB2 (11727129_at) / Fold change /veh MAGEB2 (11727129_at) / RFU TMEM200A (11744735_a_at) / Fold change /veh TMEM200A (11744735_a_at) / RFU CCDC152 (11751479_a_at) / Fold change /veh CCDC152 (11751479_a_at) / RFU FAM211A (11726209_a_at) / Fold change /veh FAM211A (11726209_a_at) / RFU RGS16 (11746705_a_at) / Fold change /veh RGS16 (11746705_a_at) / RFU VCAN (11755009_s_at) / Fold change /veh VCAN (11755009_s_at) / RFU RHOB (11743442_s_at) / Fold change /veh RHOB (11743442_s_at) / RFU RGS16 (11720943_a_at) / Fold change /veh RGS16 (11720943_a_at) / RFU RGS16 (11720944_at) / Fold change /veh RGS16 (11720944_at) / RFU, VPS4B / Fold change vs veh, VPS4B / RFU, CREB1 / Fold change vs veh, CREB1 / RFU, DNAJC13 / Fold change vs veh, DNAJC13 / RFU, GNAQ / Fold change vs veh, GNAQ / RFU, CDK5R1 / Fold change vs veh, CDK5R1 / RFU, ZRANB3 / Fold change vs veh, ZRANB3 / RFU, CUL4A / Fold change vs veh, CUL4A / RFU, CCNY / Fold change vs veh, CCNY / RFU, UFL1 / Fold change vs veh, UFL1 / RFU, COG3 / Fold change vs veh, COG3 / RFU, DIAPH2 / Fold change vs veh, DIAPH2 / RFU, SKA2 / Fold change vs veh, SKA2 / RFU, AFF3 / Fold change vs veh, AFF3 / RFU, LMF1 / Fold change vs veh, LMF1 / RFU, IPO11 / Fold change vs veh, IPO11 / RFU, DFFB / Fold change vs veh, DFFB / RFU, FOXP1 / Fold change vs veh, FOXP1 / RFU, CARD8 / Fold change vs veh, CARD8 / RFU, STRN3 / Fold change vs veh, STRN3 / RFU, ADK / Fold change vs veh, ADK / RFU, RASSF2 / Fold change vs veh, RASSF2 / RFU, WIPF1 / Fold change vs veh, WIPF1 / RFU, LARP1B / Fold change vs veh, LARP1B / RFU, RASA1 / Fold change vs veh, RASA1 / RFU, RB1 / Fold change vs veh, RB1 / RFU, PPFIA1 / Fold change vs veh, PPFIA1 / RFU, MAT2A / Fold change vs veh, MAT2A / RFU, CCT5 / Fold change vs veh, CCT5 / RFU, WDR92 / Fold change vs veh, WDR92 / RFU, CUX1 / Fold change vs veh, CUX1 / RFU, TTC7A / Fold change vs veh, TTC7A / RFU, TMEM135 / Fold change vs veh, TMEM135 / RFU, DEPTOR / Fold change vs veh, DEPTOR / RFU, CPM / Fold change vs veh, CPM / RFU, DNAJB6 / Fold change vs veh, DNAJB6 / RFU, CACNA2D3 / Fold change vs veh, CACNA2D3 / RFU, DTX4 / Fold change vs veh, DTX4 / RFU, TFCP2 / Fold change vs veh, TFCP2 / RFU, GMCL1 /// GMCL1P1 / Fold change vs veh, GMCL1 /// GMCL1P1 / RFU, AEBP2 / Fold change vs veh, AEBP2 / RFU, SNHG1 /// SNORD22 /// SNORD25 /// SNORD26 /// SNORD27 /// SNORD28 /// SNORD29 /// SNORD31 / Fold change vs veh, SNHG1 /// SNORD22 /// SNORD25 /// SNORD26 /// SNORD27 /// SNORD28 /// SNORD29 /// SNORD31 / Fold change (Aza/veh), C12orf56 (ProbeSet 11735607_a_at) / Fold change (ACY-1035/veh), C12orf56 (ProbeSet 11735607_a_at) / Fold change (Aza/veh), FGFR1OP (ProbeSet 11751329_s_at) / Fold change (ACY-1035/veh), FGFR1OP (ProbeSet 11751329_s_at) / Fold change (Aza/veh), VPS36 (ProbeSet 11739960_a_at) / Fold change (ACY-1035/veh), VPS36 (ProbeSet 11739960_a_at) / RFU SYPL1 (11715823_x_at) / Fold change /veh SYPL1 (11715823_x_at) / RFU IGFBP7 (11715501_s_at) / Fold change /veh IGFBP7 (11715501_s_at) / RFU REEP3 (11722064_at) / Fold change /veh REEP3 (11722064_at) / RFU IGLL1 (11728026_x_at) / Fold change /veh IGLL1 (11728026_x_at): dose or concentration left out as unconfirmed. Particulars: ProbeSet 11732281_s_at; LIST D.

With `Nc1ncn([C@@H]2O[C@H](CO)[C@@H](O)[C@H]2O)c(=O)n1` [azacitidine], the “Fold change vs veh, FOXP1” value came out at 0.63.
